In PubChem BioAssay (NCI):
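Abbreviation: GI50, concentration required for 50% inhibition of growth. TGI marks complete inhibition of growth.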

Columns and labels:
Experiment in all cases: NCI tumour cell line growth inhibition, 384-well format
[1] = test system: 786-0 renal
[2] = test system: A498 renal
[3] = test system: A549 NSCLC
[4] = test system: ACHN renal
[5] = test system: BT-549 breast
[6] = test system: CAKI-1 renal
[7] = test system: CCRF-CEM leukemia
[8] = test system: COLO 205 colon
[9] = test system: DU-145 prostate
[10] = test system: EKVX NSCLC
[11] = test system: HCC-2998 colon
[12] = test system: HCT-116 colon
[13] = test system: HCT-15 colon
[14] = test system: HL-60(TB) leukemia
[15] = test system: HOP-62 NSCLC
[16] = test system: HOP-92 NSCLC
[17] = test system: HS 578T breast
[18] = test system: HT29 colon
[19] = test system: IGROV1 ovarian
[20] = test system: K-562 leukemia
[21] = test system: KM12 colon
[22] = test system: LOX IMVI melanoma
[23] = test system: M14 melanoma
[24] = test system: MALME-3M melanoma
[25] = test system: MCF7 breast
[26] = test system: MDA-MB-231 breast
[27] = test system: MDA-MB-435 melanoma
[28] = test system: MDA-MB-468 breast
[29] = test system: MOLT-4 leukemia
[30] = test system: NCI-H226 lung
[31] = test system: NCI-H23 lung
[32] = test system: NCI-H322M lung
[33] = test system: NCI-H460 NSCLC
[34] = test system: NCI-H522 lung
[35] = test system: NCI/ADR-RES ovarian
[36] = test system: OVCAR-3 ovarian
[37] = test system: OVCAR-4 ovarian
[38] = test system: OVCAR-5 ovarian
[39] = test system: OVCAR-8 ovarian
[40] = test system: PC-3 prostate
[41] = test system: RPMI-8226 leukemia
[42] = test system: RXF 393 renal
[43] = test system: SF-268 CNS
[44] = test system: SF-295 CNS
[45] = test system: SF-539 CNS
[46] = test system: SK-MEL-2 melanoma
[47] = test system: SK-MEL-28 melanoma
[48] = test system: SK-MEL-5 melanoma
[49] = test system: SK-OV-3 ovarian
[50] = test system: SN12C renal
[51] = test system: SNB-19 CNS
[52] = test system: SNB-75 CNS
[53] = test system: SR leukemia
[54] = test system: SW-620 colon
[55] = test system: T-47D breast
[56] = test system: TK-10 renal
[57] = test system: U251 glioblastoma
[58] = test system: UACC-257 melanoma
[59] = test system: UACC-62 melanoma

COc1ccc(S(=O)(=O)N2CCNCC2)cc1OC
GI50 [1]: > 100 µM
TGI [1]: > 100 µM
GI50 [2]: > 100 µM
TGI [2]: > 100 µM
GI50 [3]: > 100 µM
TGI [3]: > 100 µM
GI50 [4]: > 100 µM
TGI [4]: > 100 µM
GI50 [5]: > 100 µM
TGI [5]: > 100 µM
GI50 [6]: > 100 µM
TGI [6]: > 100 µM
GI50 [7]: > 100 µM
TGI [7]: > 100 µM
GI50 [8]: > 100 µM
TGI [8]: > 100 µM
GI50 [9]: > 100 µM
TGI [9]: > 100 µM
GI50 [10]: > 100 µM
TGI [10]: > 100 µM
GI50 [11]: > 100 µM
TGI [11]: > 100 µM
GI50 [12]: > 100 µM
TGI [12]: > 100 µM
GI50 [13]: > 100 µM
TGI [13]: > 100 µM
GI50 [14]: > 100 µM
TGI [14]: > 100 µM
GI50 [15]: > 100 µM
TGI [15]: > 100 µM
GI50 [16]: > 100 µM
TGI [16]: > 100 µM
GI50 [17]: > 100 µM
TGI [17]: > 100 µM
GI50 [18]: > 100 µM
TGI [18]: > 100 µM
GI50 [19]: > 100 µM
TGI [19]: > 100 µM
GI50 [20]: > 100 µM
TGI [20]: > 100 µM
GI50 [21]: > 100 µM
TGI [21]: > 100 µM
GI50 [22]: > 100 µM
TGI [22]: > 100 µM
GI50 [23]: > 100 µM
TGI [23]: > 100 µM
GI50 [24]: > 100 µM
TGI [24]: > 100 µM
GI50 [25]: > 100 µM
TGI [25]: > 100 µM
GI50 [26]: > 100 µM
TGI [26]: > 100 µM
GI50 [27]: > 100 µM
TGI [27]: > 100 µM
GI50 [28]: > 100 µM
TGI [28]: > 100 µM
GI50 [29]: > 100 µM
TGI [29]: > 100 µM
GI50 [30]: > 100 µM
TGI [30]: > 100 µM
GI50 [31]: > 100 µM
TGI [31]: > 100 µM
GI50 [32]: > 100 µM
TGI [32]: > 100 µM
GI50 [33]: > 100 µM
TGI [33]: > 100 µM
GI50 [34]: > 100 µM
TGI [34]: > 100 µM
GI50 [35]: > 100 µM
TGI [35]: > 100 µM
GI50 [36]: > 100 µM
TGI [36]: > 100 µM
GI50 [37]: > 100 µM
TGI [37]: > 100 µM
GI50 [38]: > 100 µM
TGI [38]: > 100 µM
GI50 [39]: > 100 µM
TGI [39]: > 100 µM
GI50 [40]: > 100 µM
TGI [40]: > 100 µM
GI50 [41]: > 100 µM
TGI [41]: > 100 µM
GI50 [42]: > 100 µM
TGI [42]: > 100 µM
GI50 [43]: > 100 µM
TGI [43]: > 100 µM
GI50 [44]: > 100 µM
TGI [44]: > 100 µM
GI50 [45]: > 100 µM
TGI [45]: > 100 µM
GI50 [46]: > 100 µM
TGI [46]: > 100 µM
GI50 [47]: > 100 µM
TGI [47]: > 100 µM
GI50 [48]: > 100 µM
TGI [48]: > 100 µM
GI50 [49]: > 100 µM
TGI [49]: > 100 µM
GI50 [50]: > 100 µM
TGI [50]: > 100 µM
GI50 [51]: > 100 µM
TGI [51]: > 100 µM
GI50 [52]: > 100 µM
TGI [52]: > 100 µM
GI50 [53]: > 100 µM
TGI [53]: > 100 µM
GI50 [54]: > 100 µM
TGI [54]: > 100 µM
GI50 [55]: > 100 µM
TGI [55]: > 100 µM
GI50 [56]: > 100 µM
TGI [56]: > 100 µM
GI50 [57]: > 100 µM
TGI [57]: > 100 µM
GI50 [58]: > 100 µM
TGI [58]: > 100 µM
GI50 [59]: > 100 µM
TGI [59]: > 100 µM
